Data taken from patent US20250275995A1, “NICOTINAMIDE RIBOSIDE DOSAGE REGIMEN FOR TREATING PARKINSON'S DISEASE” (VESTLANDETS INNOVASJONSSELSKAP AS (VIS), priority 2022, published 2025).

Tests used:
blood NAD^+ levels = test: NAD-brain pharmacokinetic study: whole blood NAD+ response; format: in vivo, human
Procedure: The NAD-brain study performs a parallel assessment of NAD replenishment therapy pharmacokinetics in the blood and brain of healthy human subjects and subjects with Parkinson's disease (PD). A total of 10 healthy individuals (5 men and 5 women) and 10 individuals with PD (5 men and 5 women) undergo repeated blood sampling and 31P-MRS brain scans during two 20-day periods, each of which starts with 8 days of daily intake of NR 600 mg×2, or NMN 600 mg×2. The two 20-day period is 14 days apart to allow for washout of the previous compound. Blood is analyzed for NR and NAD-metabolites using HPLC-MS. By this approach, we measured the simultaneous change in NAD-metabolism overtime in blood and brain and establish blood and brain pharmacokinetics for NAD replenishment therapy in humans.
NR (Niagen®, Chromadex) at a dose of 600 mg×2 daily). NMN (Restorin®, from Seragon Pharmaceutics, or MIB-626 from Metro International Biotech) at a dose of 600 mg×2 daily.
• At screening, participants are assessed for eligibility, inclusion/exclusion criteria, medical history and concomitant medication is recorded, and informed consent signed. • The NAD-brain study performs a parallel assessment of NAD replenishment therapy pharmacokinetics in the blood and brain of healthy human subjects and subjects with Parkinson's disease (PD). Healthy individuals and individuals with PD undergo repeated blood sampling and 31P-MRS brain scans during two 20-day periods, each of which starts with 8 days of daily intake of NR 600 mg×2, or NMN 600 mg×2 (Table 10). • For each 20-day period the testing (i.e., scanning and blood draw) frequency is shown in Table 10, below. The two 20-day periods are 14 days apart to allow for washout of the previous compound.
Blood is analyzed for NR and NAD-metabolites using HPLC-MS metabolomics. Snap-frozen whole blood is used for the analysis of NAD^+. Blood is drawn from the participant in EDTA tube (VACUETTE® TUBE 2 ml K2E K2EDTA). The EDTA tube is gently inverted at least 10 times without shaking; 8×200 μl of blood from the EDTA tube is aliquoted into 8×0.5 ml micro tubes; these are closed, and all the micro tubes are immerse simultaneously in liquid nitrogen within 2 min from when blood has started flowing into the EDTA tube; then transferred frozen to −80° C. freezer for storage; stored at −80C in freezer-compatible cardboard or plastic storage boxes; and shipped on dry ice.
This is a pharmacokinetic (PK) study where 6 healthy individuals (3 male and 3 female): • 1) Received NR 1200 mg daily (600 mg×2) for 8 days, followed by an additional 11 days follow up, while undergoing serial blood and brain NAD-measurement. • 2) Received NMN 1200 mg daily (600 mg×2) for 8 days, followed by an additional 11 days follow up, while undergoing serial blood and brain NAD-measurement.
The individuals were mixed, so that in stage-1 three individuals received NR and three individuals received NMN, then in stage-2 they switched (Cross-over design). There were almost three weeks (20 days) of washout between the last dose of the first compound, and before the first dose of the second compounds.

brain NAD levels = test: NAD-brain pharmacokinetic study: brain NAD by 31P-MRS; format: in vivo, human; settings: 11 days after last dose, 1200 mg daily for 8 days
Procedure: • At screening, participants are assessed for eligibility, inclusion/exclusion criteria, medical history and concomitant medication is recorded, and informed consent signed. • The NAD-brain study performs a parallel assessment of NAD replenishment therapy pharmacokinetics in the blood and brain of healthy human subjects and subjects with Parkinson's disease (PD). Healthy individuals and individuals with PD undergo repeated blood sampling and 31P-MRS brain scans during two 20-day periods, each of which starts with 8 days of daily intake of NR 600 mg×2, or NMN 600 mg×2 (Table 10). • For each 20-day period the testing (i.e., scanning and blood draw) frequency is shown in Table 10, below. The two 20-day periods are 14 days apart to allow for washout of the previous compound. This is a pharmacokinetic (PK) study where 6 healthy individuals (3 male and 3 female): • 1) Received NR 1200 mg daily (600 mg×2) for 8 days, followed by an additional 11 days follow up, while undergoing serial blood and brain NAD-measurement. • 2) Received NMN 1200 mg daily (600 mg×2) for 8 days, followed by an additional 11 days follow up, while undergoing serial blood and brain NAD-measurement. The individuals were mixed, so that in stage-1 three individuals received NR and three individuals received NMN, then in stage-2 they switched (Cross-over design). There were almost three weeks (20 days) of washout between the last dose of the first compound, and before the first dose of the second compounds. In the brain, total NAD (NAD^++NADH) levels were measured by 31P-MRS as previously described^19. […] 19 Brakedal, B. et al. The […] study: A randomized phase I trial of nicotinamide riboside supplementation in Parkinson's disease. Cell Metab 34, 396-407.e6 (2022).

adult humans = settings: dosages above 50-100 mg; cited from earlier work

| SMILES | blood NAD^+ levels (blood NAD^+ levels; 1200 mg daily (600 mg×2) for 8 days, 6 healthy individuals) | day of maximal NAD levels in the blood (blood NAD^+ levels; 1200 mg daily for 8 days, last dose morning of day 8) [days] | plateau of blood NAD^+ levels (blood NAD^+ levels; after 8 days of precursor intake, 1200 mg daily) | NAD levels at day 19 (brain NAD levels) | flushing with NAD precursor supplementation (adult humans) |
| --- | --- | --- | --- | --- | --- |
| NC(=O)c1ccc[n+]([C@@H]2O[C@H](COP(=O)([O-])O)[C@@H](O)[C@H]2O)c1 [NMN, Nicotinamide Mononucleotide] | increased in all individuals | 8 | did not plateau after 8 days | returned to baseline by day 19 |  |
| O=C(O)c1cccnc1 [nicotinic acid] |  |  |  |  | painful flushing |
